Key:
D(3) dopamine receptor = D(3) dopamine receptor (Homo sapiens, UniProt P35462); experiment: (§1) Membranes were incubated in a total volume of 200 ul with a fixed concentration of radioligand (final concentration approximately 0.7 nM [3H]-spiperone for D2, 0.5 nM [3H]-spiperone for D3, and 1.1 nM [3H]-ketanserin for 5-HT2A) and ten concentrations of test compound in ranging between 10 uM-0.1 nM for 1 h at RT. At the end of the incubation, the reaction mixtures were filtered on to unifilter 96-well white microplates with bonded GF/C filters.
D(3) dopamine receptor, sequence (P35462 whole entry): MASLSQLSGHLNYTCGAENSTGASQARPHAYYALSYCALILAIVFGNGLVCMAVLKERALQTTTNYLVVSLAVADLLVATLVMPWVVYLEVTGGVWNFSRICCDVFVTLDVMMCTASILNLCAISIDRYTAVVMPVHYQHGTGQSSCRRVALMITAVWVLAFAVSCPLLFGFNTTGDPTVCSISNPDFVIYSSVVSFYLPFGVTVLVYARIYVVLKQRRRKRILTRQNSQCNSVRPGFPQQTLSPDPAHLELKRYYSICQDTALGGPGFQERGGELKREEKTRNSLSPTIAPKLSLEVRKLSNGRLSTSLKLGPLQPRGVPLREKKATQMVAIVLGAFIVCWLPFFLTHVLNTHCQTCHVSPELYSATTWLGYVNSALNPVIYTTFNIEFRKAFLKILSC

[1] = target: 5-hydroxytryptamine receptor 2A (Homo sapiens, UniProt P28223); experiment: as §1
5-hydroxytryptamine receptor 2A, sequence (P28223 whole entry): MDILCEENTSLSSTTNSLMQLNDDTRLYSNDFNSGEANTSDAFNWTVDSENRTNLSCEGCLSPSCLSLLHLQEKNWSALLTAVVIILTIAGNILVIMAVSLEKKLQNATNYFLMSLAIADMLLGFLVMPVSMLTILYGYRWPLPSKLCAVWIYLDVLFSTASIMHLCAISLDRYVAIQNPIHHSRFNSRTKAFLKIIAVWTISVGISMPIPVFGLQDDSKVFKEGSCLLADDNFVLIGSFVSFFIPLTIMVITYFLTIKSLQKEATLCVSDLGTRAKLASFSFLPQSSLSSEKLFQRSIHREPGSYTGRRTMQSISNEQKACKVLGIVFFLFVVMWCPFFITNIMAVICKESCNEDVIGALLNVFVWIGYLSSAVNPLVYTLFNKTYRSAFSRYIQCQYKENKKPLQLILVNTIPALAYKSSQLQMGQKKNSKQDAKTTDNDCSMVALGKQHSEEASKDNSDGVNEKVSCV

| SMILES | Ki (D(3) dopamine receptor) [nM] | Ki [1] [nM] |
| --- | --- | --- |
| O=S(=O)(N[C@H]1CC[C@H](CCN2CCC(c3noc4cc(F)ccc34)CC2)CC1)c1cccnc1 | 1.95 | 2.48 |
| O=C(N[C@H]1CC[C@H](CCN2CCC(c3noc4cc(F)ccc34)CC2)CC1)c1ccc2c(c1)OCO2 | 2.75 | 1.71 |
| COCCC(=O)N[C@H]1CC[C@H](CCN2CCC(c3noc4ccc(F)cc34)CC2)CC1 | 3.1 | 37 |

— ChEMBL document CHEMBL3886245, “Dual modulators of 5HT2A and D3 receptors” (2014)
